Experimental data as given in patent US20250302783A1, “SYMPATHETIC NERVE ACTIVATION AGENT AND SYMPATHETIC NERVE ACTIVATION COMPOSITION” (MARUZEN PHARMACEUTICALS CO., LTD., priority 2022, published 2025).

Experiments:
Format in all cases: in vivo, rat
[1] = system: distal branches of the sympathetic nerve innervating the right epididymal white adipose tissue; assay: White adipose tissue sympathetic nerve activity (WAT-SNA) after intragastric administration, Test Example 1; conditions: urethane-anesthetized male rats, measured for 60 minutes, FIG. 1
Procedure: The effect of the intragastric administration of the compound represented by Structural Formula (1) on the activity of the sympathetic nerve innervating the white adipose tissue, the brown adipose tissue, the adrenal gland, or the liver was tested in the following manner. For the experiment, male Whistar rats (approximately 9 weeks old) each having a body weight of approximately 300 g were kept in a 24° C. thermostatic animal room for 1 week or longer with a 12-hour light-dark cycle (lighting from 8:00 to 20:00). On the day of the experiment, the rats were fasted for 3 hours, followed by anesthetizing with urethane. A cannula for intragastric administration was inserted into each of the rats, and then distal branches of the sympathetic nerve innervating the right epididymal white adipose tissue, the interscapular brown adipose tissue, the left adrenal gland, or the liver were lifted with a silver electrode, and the electrical activity thereof was measured. […] In addition, as a control, water serving as a solvent was intragastrically administered using the cannula at a dose of 0.5 mL/300 g of body weight, and the change in the neural activity of the distal branches of the above sympathetic nerves was measured electrophysiologically for 60 minutes. […]

[2] = system: distal branches of the sympathetic nerve innervating the left adrenal gland; assay: Adrenal sympathetic nerve activity (ASNA) after intragastric administration, Test Example 1; conditions: urethane-anesthetized male rats, measured for 60 minutes, FIG. 3
Procedure: (§1) The effect of the intragastric administration of the compound represented by Structural Formula (1) on the activity of the sympathetic nerve innervating the white adipose tissue, the brown adipose tissue, the adrenal gland, or the liver was tested in the following manner. For the experiment, male Whistar rats (approximately 9 weeks old) each having a body weight of approximately 300 g were kept in a 24° C. thermostatic animal room for 1 week or longer with a 12-hour light-dark cycle (lighting from 8:00 to 20:00). On the day of the experiment, the rats were fasted for 3 hours, followed by anesthetizing with urethane. A cannula for intragastric administration was inserted into each of the rats, and then distal branches of the sympathetic nerve innervating the right epididymal white adipose tissue, the interscapular brown adipose tissue, the left adrenal gland, or the liver were lifted with a silver electrode, and the electrical activity thereof was measured. When the measurement value stabilized (at approximately 13:00), an aqueous solution of the compound represented by Structural Formula (1) (produced by Tokyo Chemical Industry Co., Ltd.) was intragastrically administered using the cannula at a dose of 15 mg/0.5 mL/300 g of body weight, 1.5 mg/0.5 mL/300 g of body weight, 0.15 mg/0.5 mL/300 g of body weight, or 0.015 mg/0.5 mL/300 g of body weight, and the change in the neural activity of the distal branches of the above sympathetic nerves was measured electrophysiologically for 60 minutes. In addition, as a control, water serving as a solvent was intragastrically administered using the cannula at a dose of 0.5 mL/300 g of body weight, and the change in the neural activity of the distal branches of the above sympathetic nerves was measured electrophysiologically for 60 minutes. […] The data of the neural activity was analyzed as the mean value of the firing rate per 5 seconds (pulse/5 s) every 5 minutes, and represented by a percentage relative to the mean value (a value at 0 minutes) at 5 minutes before the onset of stimulation being determined as 100%. FIG. 3 illustrates, as a percentage with respect to the mean value (a value at 0 minutes) at 5 minutes before the onset of stimulation being determined as 100%, the result of the change in the neural activity of distal branches of the sympathetic nerves for the adrenal gland (adrenal sympathetic nerve activity, ASNA) when the aqueous solution including 15 mg, 1.5 mg, 0.15 mg, or 0.015 mg of the compound represented by Structural Formula (1) was intragastrically administered at a dose of 0.5 mL/300 g of body weight, or water serving as the solvent was intragastrically administered at a dose of 0.5 mL/300 g of body weight.

[3] = system: distal branches of the sympathetic nerve innervating the interscapular brown adipose tissue; assay: Brown adipose tissue sympathetic nerve activity (BAT-SNA) after intragastric administration, Test Example 1; conditions: urethane-anesthetized male rats, measured for 60 minutes, FIG. 2
Procedure: as §1, with “FIG. 3 illustrates, as a percentage with respect to the mean value (a value at 0 minutes) at 5 minutes before the onset of stimulation being determined as 100%, the result of the change in the neural activity of distal branches of the sympathetic nerves for the adrenal gland (adrenal sympathetic nerve activity, ASNA) when the aqueous solution including 15 mg, 1.5 mg, 0.15 mg, or 0.015 mg of the compound represented by Structural Formula (1) was intragastrically administered at a dose of 0.5 mL/300 g of body weight, or water serving as the solvent was intragastrically administered at a dose of 0.5 mL/300 g of body weight.” left out

[4] = system: distal branches of the sympathetic nerve innervating the liver; assay: Hepatic sympathetic nerve activity (Hepatic-SNA) after intragastric administration, Test Example 1; conditions: urethane-anesthetized male rats, measured for 60 minutes, FIG. 4
Procedure: as §1, with “FIG. 3 illustrates, as a percentage with respect to the mean value (a value at 0 minutes) at 5 minutes before the onset of stimulation being determined as 100%, the result of the change in the neural activity of distal branches of the sympathetic nerves for the adrenal gland (adrenal sympathetic nerve activity, ASNA) when the aqueous solution including 15 mg, 1.5 mg, 0.15 mg, or 0.015 mg of the compound represented by Structural Formula (1) was intragastrically administered at a dose of 0.5 mL/300 g of body weight, or water serving as the solvent was intragastrically administered at a dose of 0.5 mL/300 g of body weight.” left out

[5] = 1.5 mg/0.5 mL/300 g of body weight
[6] = 15 mg/0.5 mL/300 g of body weight
[7] = 0.15 mg/0.5 mL/300 g of body weight

Q: Which “change in white adipose tissue sympathetic nerve activity (WAT-SNA) versus water control” value [1, 5] does the source give for `COc1cc(CCC(=O)O)ccc1O` [3-(4-hydroxy-3-methoxyphenyl) propionic acid] here?
A: Its value is “higher than the WAT-SNA value of the group to which water serving as the solvent was administered”.

Q: And the “change in white adipose tissue sympathetic nerve activity (WAT-SNA) versus water control” value [1, 6]?
A: The value was “higher than the WAT-SNA value of the group to which water serving as the solvent was administered”.

Q: What about the “change in adrenal sympathetic nerve activity (ASNA) versus water control” value (“change … (ASNA) versus water control” below) ([2]; 0.015 mg/0.5 mL/300 g of body weight) of the same molecule?
A: The value was “higher than the ASNA value of the group to which water serving as the solvent was administered”.

Q: What about the “change … (ASNA) versus water control” value [2, 7] of the same molecule?
A: Its value is “higher than the ASNA value of the group to which water serving as the solvent was administered”.

Q: And the “change … (ASNA) versus water control” value [2, 5]?
A: The value was “higher than the ASNA value of the group to which water serving as the solvent was administered”.

Q: What about the “change … (ASNA) versus water control” value [2, 6] of the same molecule?
A: The value was “higher than the ASNA value of the group to which water serving as the solvent was administered”.

Q: And the “change in brown adipose tissue sympathetic nerve activity (BAT-SNA) versus water control” value (shortened to “change … (BAT-SNA) versus water control”) [3, 7]?
A: Its value is “higher than the BAT-SNA value of the group to which water serving as the solvent was administered”.

Q: And the “change … (BAT-SNA) versus water control” value [3, 5]?
A: The value was “higher than the BAT-SNA value of the group to which water serving as the solvent was administered”.

Q: What about the “change … (BAT-SNA) versus water control” value [3, 6] of the same molecule?
A: The value was “higher than the BAT-SNA value of the group to which water serving as the solvent was administered”.

Q: What about the “change in hepatic sympathetic nerve activity (Hepatic-SNA) versus water control” value (shortened to “change … (Hepatic-SNA) versus water control”) [4, 7] of the same molecule?
A: The value was “higher than the Hepatic-SNA value of the group to which water serving as the solvent was administered”.

Q: And the “change … (Hepatic-SNA) versus water control” value [4, 5]?
A: Its value is “higher than the Hepatic-SNA value of the group to which water serving as the solvent was administered”.

Q: And the “change … (Hepatic-SNA) versus water control” value [4, 6]?
A: Its value is “higher than the Hepatic-SNA value of the group to which water serving as the solvent was administered”.
